# Test results published in US10028929B2, “Method of treating raynaud's disease secondary to connectivitis using aminaphtone” (LABORATORI BALDACCI S.P.A., priority 2006, dated 2018).
# How the values were obtained:
# Type in all cases: cell-based, human
# [1] = test system: Pre-Pro-ET-1 (PPET-1) gene; assay: Real-Time RT-PCR specific for Pre-Pro-ET-1 (PPET-1) in ECV 304 cells; conditions: ECV304 cells with or without IL-1β 100 U/ml, aminaphtone 2; 4; 6, 6-12-24-36 hrs
# Procedure: (§1) Cell lines ECV 304: they are cells coming from umbilical cord of a new-born and spontaneously immortalized at the 136th step (distributed from Collection of Cell Cultures). Such cells were cultured in a complete medium consisted of: Medium 199, L-glutamine 1%, penicillin/streptomycin 10 (Invitrogen) with an addition of 10% FCS (fetal calf serum) (Hy-clone).
# b) Real-Time RT-PCR specific for Pre-Pro-ET-1 (PPET-1). The expression of PPET-1 gene was detected at 6-12-24-36 hrs, respectively, in samples: treated with IL-1β (100 U/ml); treated with IL-1β (100 U/ml) additioned with aminaphtone (2; 4; […]); non-stimulated by IL-1β but treated with aminaphtone alone. RT-PCR technique based on TaqMan technology was used (Applied Biosystems, Foster City, Calif.), through a sequence determination system ABI PRISM 7000 (Applied Biosystems). 2-4 μl were collected form each cDNA, diluted 1:5, in a final volume of 25 μl. […] The quantification of the specific mRNA PPET-1 was normalized for the constitutive gene expression glyceraldehyde-3-phosphate-dehydro-genase (GAPDH). Relative quantifications of the gene expression were made possible by the use of the comparative method CT (ΔΔCT). The CT value was defined as the number of PCR cycles required for overcome the fluorescence signal (defined as 10-fold the standard deviation of the basal variation). […]
# [2] = test system: E-selectine adhesive molecule CD62 (ELAM-1); assay: Cytofluorometric quantitative analysis of E-selectine (ELAM-1) expression in ECV 304 cells; conditions: 48 hr
# Procedure: as §1
# Cytofluorometric quantitative analysis of aminaphtone effects on the E-selectine adhesive molecule expression CD62 (ELAM-1).
# Cells of the ECV304 line, cultured in 28 cm^2 Petri dishes, were stimulated with IL-1β at 100 U/ml (Roche) over 48 hrs in a complete medium and complete medium additioned with aminaphtone at the concentration of 2; 4; 5 μg/ml, respectively. Such concentrations are equivalent to concentrations reached “in vivo” through administration of Capillarema per os at the standard dosage of 3 capsules/day (capsules with 75 mg of active substance per day). Furthermore, cells untreated with IL-1β were incubated in a complete medium additioned with aminaphtone alone at the concentration of 4 μg/ml.
# Samples, after washing with PBS, were removed from the culture plates through a treatment with trypsin-EDTA. Adhesive molecules expression was detected through incubation over 20 min. with 7 μl/10^6 of human monoclonal antibody CD62-E-PECy5 (ELAM-1) (Becton-Dickinson). The binding specificity was ensured by the addition of the control […]. After washing and re-suspension in the fixing solution (1% paraformaldehyde, PFA in PBS), samples were analyzed in a flow cytometry with FACSdiva Software (Becton-Dickinson). Data were expressed as mean channel fluorescence and as fluorescence percentage of positive cells. All experiments were repeated 5 times on independent cell samples coming from different experimental sessions. Evaluation of endothelin production (ET-1).
# endothelin-1 (ET-1) = assay: Endothelin-1 production from ECV 304 cells, EIA-kit on supernatants; conditions: aminaphtone 2, 4, 6 mcg/ml, dose-dependent
# Procedure: as §1
# a) EIA-kit—Supernatants of cell samples ECV304 were collected, cultured as above, treated with IL-1β at 100 U/ml over 6-12-24 and 36 hrs or with IL-1β at 100 U/ml additioned with aminaphtone at the concentration of 2; 4; 6 μg/ml, respectively. Moreover, samples non-stimulated with IL-1β were incubated with the addition of aminaphtone alone at 2; 4; 6 μg/ml.
# The concentration of ET-1 existing in the supernatants was quantified through Endothelin-1 EIA-Kit (CAYMAN Chemical) in an interval between 0 and 250 pg/ml. This immunometric test is based on the “sandwich” technique with a double antibody.
smiles,measurement,setting,value
"Cc1cc(OC(=O)c2ccc(N)cc2)c2ccccc2c1O [aminaphtone, 2-hydroxy-3-methyl-1,4-naphthohydroquinone-2-p-aminobenzoate]",gene transcription of PRE-PRO-ET-1,[1],"trend, already observed at a level of gene transcription of PRE-PRO-ET-1"
same,ELAM-1 % positive cells,"[2]; ECV304 cells + IL-1β 100 U/ml, aminaphtone 2 mcg/ml, IL-1β alone 38.4±3.7, p=n.s.",36.6±4.5%
same,"ELAM-1 membrane fluorescence, mean channel (MC), mean±standard deviation","[2]; ECV304 cells + IL-1β 100 U/ml, aminaphtone 2 mcg/ml, IL-1β alone 369.6±30.5, p<0.001",332.2±36.8
same,ELAM-1 % positive cells,"[2]; ECV304 cells + IL-1β 100 U/ml, aminaphtone 4 mcg/ml, IL-1β alone 38.4±3.7, p<0.001",28.2±2.9%
same,"ELAM-1 membrane fluorescence, mean channel (MC), mean±standard deviation","[2]; ECV304 cells + IL-1β 100 U/ml, aminaphtone 4 mcg/ml, IL-1β alone 369.6±30.5, p<0.001",278.4±16.2
same,ELAM-1 % positive cells,"[2]; ECV304 cells + IL-1β 100 U/ml, aminaphtone 5 mcg/ml, IL-1β alone 38.4±3.7, p<0.001",27.2±3.7%
same,"ELAM-1 membrane fluorescence, mean channel (MC), mean±standard deviation","[2]; ECV304 cells + IL-1β 100 U/ml, aminaphtone 5 mcg/ml, IL-1β alone 369.6±30.5, p<0.001",252.6±10.3
same,ELAM-1 % positive cells,"[2]; ECV304 cells not activated with IL-1β, aminaphtone 4 mcg/ml, medium alone 29.1±3.1, p<0.05",19.4±1.7%
same,"ELAM-1 membrane fluorescence, mean channel (MC), mean±standard deviation","[2]; ECV304 cells not activated with IL-1β, aminaphtone 4 mcg/ml, medium alone 250±22, p<0.05",219±8.3
same,ET-1 production (EIA-kit),"endothelin-1 (ET-1); ECV304 cells non-activated, culture medium alone, significant at 12 h (6 mcg/ml), 24 h and 36 h (4, 6 mcg/ml)",tends to reduce the ET-1 production
same,ET-1 production (EIA-kit),"endothelin-1 (ET-1); ECV304 cells stimulated with IL-1β 100 U/ml, 6-12-24-36 hrs, significant at 6 h (4, 6 mcg/ml), 12 h (4, 6 mcg/ml), 36 h (6 mcg/ml)",tends to reduce the ET-1 production
